Measured values taken from patent publication US11464759B2, “5-HT6 receptor antagonists for use in the treatment of alzheimer's disease in patient subpopulation carrying APOE4 alleles” (H. Lundbeck A/S, priority 2017, dated 2022).
“Also recorded” adds a separate entry of the source.

Assays:
[1] = system: APOE4/4 homozygote patients and APOE4 heterozygote patients with mild-moderate Alzheimer's disease; test: Expected treatment response to other 5-HT6 receptor antagonists in APOE4 patients; format: in vivo, human; details: APOE4/4 homozygote and APOE4 heterozygote patients with mild-moderate AD; surmised from idalopirdine
h5-HT1E = h5-HT1E (Homo sapiens, UniProt P28566); details: cited from earlier work
[2] = system: patients with mild-moderate AD; test: Phase III study 14861A, MMSE by ApoE4 allele number; details: 60 mg QD versus placebo, adjunct to donepezil
Method: (§1) Mini Mental State Examination (MMSE) is measured according to Folstein, M. F., Folstein, S. E. & McHugh, P. R. “Mini-mental state”: a practical method for grading the cognitive state of patients for the clinician.
(§2) Mine Mental State Examination (MMSE) was included as a secondary endpoint supportive of the primary objective.
(§3) In the tables below a negative effect value for ADAS-cog and NPI reflects a positive treatment effect, while for ADL and MMSE a positive effect value reflects a positive treatment effect:

[3] = system: patients with mild-moderate AD; test: Phase III study 14863A, ADCS-ADL by ApoE4 allele number; details: 60 mg QD versus placebo, adjunct to donepezil, rivastigmine, galantamine
Method: (§4) ADCS-ADL is measured according to Galasko et al. An inventory to assess activities of daily living for clinical trials in Alzheimer's disease.
(§5) The key secondary endpoints included a change from baseline to Week 24 in Alzheimer's disease Cooperative Study-Activities of Daily Living Inventory (ADCS-ADL) total score.

[4] = system: patients with mild-moderate Alzheimer's disease (MMSE 12-22); test: Phase III program, idalopirdine as adjunctive treatment to acetylcholinesterase inhibitor, cognitive performance; format: in vivo, human
[5] = system: patients with mild-moderate AD; test: Phase III study 14863A, ADAS-cog by ApoE4 allele number; details: 60 mg QD versus placebo, adjunct to donepezil, rivastigmine, galantamine
From the text: (§6) The primary endpoint was change from baseline to Week 24 in Alzheimer's disease Assessment Scale-cognitive subscale (ADAS-cog). This end-point addresses the primary objective of the study, which was to establish efficacy of idalopirdine as adjunctive therapy to donepezil for symptomatic treatment of patients with mild-moderate AD.

[6] = system: patients with mild-moderate AD; test: Phase III studies 14861A and 14863A pooled, MMSE by ApoE4 allele number; details: 60 mg versus placebo, adjunct to AChEI
Method: as §1, §2, §3

h5-HT7 = h5-HT7 (Homo sapiens, UniProt P34969); details: cited from earlier work
[7] = system: patients with mild-moderate AD; test: Phase III study 14861A, ADCS-ADL by ApoE4 allele number; details: 60 mg QD versus placebo, adjunct to donepezil
Method: as §4, §5

[8] = system: patients with mild-moderate AD; test: Phase III study 14861A, ADAS-cog by ApoE4 allele number; details: 60 mg QD versus placebo, adjunct to donepezil
From the text: as §6

[9] = system: patients with mild-moderate AD; test: Phase III studies 14861A and 14863A pooled, ADAS-cog by ApoE4 allele number; details: 60 mg versus placebo, adjunct to AChEI
From the text: as §6

[10] = system: patients with mild-moderate AD; test: Phase III study 14863A, NPI by ApoE4 allele number; details: 60 mg QD versus placebo, adjunct to donepezil, rivastigmine, galantamine
From the text: (§7) Neuropsychiatric Inventory (NPI) was included as an endpoint supportive of the secondary objective.

[11] = system: patients with mild-moderate AD; test: Phase III studies 14861A and 14863A pooled, NPI by ApoE4 allele number; details: 60 mg versus placebo, adjunct to AChEI
From the text: as §7

[12] = system: patients with moderate AD (MMSE 12-19); details: LADDER study, 90 mg/day (30 mg TID) added to stable donepezil; cited from earlier work
h5-HT1B = h5-HT1B (Homo sapiens, UniProt P28222); details: cited from earlier work
h5-HT2B = h5-HT2B (Homo sapiens, UniProt P41595); details: cited from earlier work
[13] = system: patients with mild-moderate AD; test: Phase III studies 14861A and 14863A pooled, ADCS-ADL by ApoE4 allele number; details: 60 mg versus placebo, adjunct to AChEI
Method: as §4, §5

[14] = system: patients with mild-moderate AD; test: Phase III study 14863A, MMSE by ApoE4 allele number; details: 60 mg QD versus placebo, adjunct to donepezil, rivastigmine, galantamine
Method: as §1, §2, §3

[15] = system: patients with mild-moderate AD; test: Phase III study 14861A, NPI by ApoE4 allele number; details: 60 mg QD versus placebo, adjunct to donepezil
From the text: as §7

AD = details: cited from earlier work
[16] = 0 ApoE4 alleles, positive = positive treatment effect
[17] = 1 ApoE4 allele, positive = positive treatment effect
[18] = 2 ApoE4 alleles, positive = positive treatment effect
[19] = interaction 2 vs 0 ApoE4 alleles
[20] = interaction (1 or 2) vs 0 ApoE4 alleles
[21] = 0 ApoE4 alleles, negative = positive treatment effect
[22] = 1 ApoE4 allele, negative = positive treatment effect
[23] = 2 ApoE4 alleles, negative = positive treatment effect

h5-HT1B, sequence (P28222 whole entry): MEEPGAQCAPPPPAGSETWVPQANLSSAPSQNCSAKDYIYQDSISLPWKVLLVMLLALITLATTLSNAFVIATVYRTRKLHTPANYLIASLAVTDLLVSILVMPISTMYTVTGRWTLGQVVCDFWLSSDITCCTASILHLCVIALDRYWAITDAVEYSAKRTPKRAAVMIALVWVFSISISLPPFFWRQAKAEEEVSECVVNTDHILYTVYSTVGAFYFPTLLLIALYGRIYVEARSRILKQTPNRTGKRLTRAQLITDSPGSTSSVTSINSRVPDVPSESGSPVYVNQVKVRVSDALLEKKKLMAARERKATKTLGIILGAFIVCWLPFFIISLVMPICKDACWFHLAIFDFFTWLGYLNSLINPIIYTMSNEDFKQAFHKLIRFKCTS
h5-HT1E, sequence (P28566 whole entry): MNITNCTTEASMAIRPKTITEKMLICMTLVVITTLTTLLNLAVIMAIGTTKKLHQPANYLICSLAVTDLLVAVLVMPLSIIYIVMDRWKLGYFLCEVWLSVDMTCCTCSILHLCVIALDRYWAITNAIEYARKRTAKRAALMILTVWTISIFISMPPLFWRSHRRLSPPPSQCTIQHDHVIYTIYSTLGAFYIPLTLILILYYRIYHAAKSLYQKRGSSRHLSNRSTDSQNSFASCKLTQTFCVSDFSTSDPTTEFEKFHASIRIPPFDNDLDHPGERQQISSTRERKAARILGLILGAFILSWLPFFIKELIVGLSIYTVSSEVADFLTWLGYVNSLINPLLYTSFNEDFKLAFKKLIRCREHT
h5-HT2B, sequence (P41595 whole entry): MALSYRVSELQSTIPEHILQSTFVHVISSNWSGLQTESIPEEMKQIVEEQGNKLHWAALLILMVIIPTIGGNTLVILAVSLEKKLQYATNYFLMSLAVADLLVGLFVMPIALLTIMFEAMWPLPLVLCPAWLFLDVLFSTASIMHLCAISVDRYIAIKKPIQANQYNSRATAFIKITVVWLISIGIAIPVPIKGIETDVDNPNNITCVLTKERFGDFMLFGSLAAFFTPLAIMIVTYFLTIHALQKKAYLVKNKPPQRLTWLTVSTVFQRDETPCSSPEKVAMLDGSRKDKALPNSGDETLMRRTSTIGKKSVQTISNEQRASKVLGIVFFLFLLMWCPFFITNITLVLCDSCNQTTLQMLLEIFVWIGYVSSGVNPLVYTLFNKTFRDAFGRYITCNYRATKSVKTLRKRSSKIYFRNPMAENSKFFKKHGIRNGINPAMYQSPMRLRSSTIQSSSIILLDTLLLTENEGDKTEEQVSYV
h5-HT7, sequence (P34969 whole entry): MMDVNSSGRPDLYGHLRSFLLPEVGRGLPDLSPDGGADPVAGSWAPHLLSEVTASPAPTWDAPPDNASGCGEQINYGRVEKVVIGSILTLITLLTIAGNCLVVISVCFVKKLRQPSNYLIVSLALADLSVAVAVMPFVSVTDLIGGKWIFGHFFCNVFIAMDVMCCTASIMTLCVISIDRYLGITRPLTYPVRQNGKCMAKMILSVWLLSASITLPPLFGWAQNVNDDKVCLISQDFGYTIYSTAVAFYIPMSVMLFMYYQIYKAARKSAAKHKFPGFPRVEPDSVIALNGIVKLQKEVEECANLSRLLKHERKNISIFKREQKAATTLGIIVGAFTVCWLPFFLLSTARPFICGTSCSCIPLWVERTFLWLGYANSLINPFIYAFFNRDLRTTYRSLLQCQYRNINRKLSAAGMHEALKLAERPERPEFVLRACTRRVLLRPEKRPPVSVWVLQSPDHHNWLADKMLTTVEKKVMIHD

CSc1nn2c(C)cc(C)nc2c1S(=O)(=O)c1ccccc1 [AVN-211, 3-Benzenesulfonyl-5,7-dimethyl-2-methylsulfanyl-pyrazolo[1,5-a]pyrimidine]
treatment response in Alzheimer's disease [1]: enhanced treatment response

O=S(=O)(c1ccccc1)c1cnc2c(N3CCNCC3)cccc2c1 [RVT-101, 3-phenylsulfonyl-8-piperazin-1-yl-quinoline]
treatment response in Alzheimer's disease [1]: enhanced treatment response

Fc1ccc2c(CCNCc3cccc(OCC(F)(F)C(F)F)c3)c[nH]c2c1 [idalopirdine, N-(2-(6-fluoro-1H-indol-3-yl)-ethyl)-3-(2,2,3,3-tetrafluoropropoxy)-benzylamine]
Ki (h5-HT1E): > 4.6 µM | Change in MMSE at week 24, effect of 60 mg IDL [2, 16]: −0.68 | Change in MMSE at week 24, effect of 60 mg IDL [2, 17]: 0.64 | Change in MMSE at week 24, effect of 60 mg IDL [2, 18]: 1.11 | Change in MMSE at week 24, effect of 60 mg IDL [2, 19]: 1.79 | Change in MMSE at week 24, effect of 60 mg IDL [2, 20]: 1.56 | Change in ADCS-ADL at week 24, effect of 60 mg IDL [3, 16]: 0.50 | Change in ADCS-ADL at week 24, effect of 60 mg IDL [3, 17]: 0.83 | Change in ADCS-ADL at week 24, effect of 60 mg IDL [3, 18]: 1.86 | Change in ADCS-ADL at week 24, effect of 60 mg IDL [3, 19]: 1.37 | Change in ADCS-ADL at week 24, effect of 60 mg IDL [3, 20]: 0.85 | cognitive performance relative to donepezil monotherapy ([4]; adjunctive to donepezil, APOE4 homozygote and APOE4 heterozygote patients with mild-moderate AD (MMSE 12-22)): a significant improvement | cognitive performance relative to donepezil monotherapy ([4]; phase III, 10, 30, and 60 mg QD adjunctive to AChEI, all patients with mild-moderate AD (MMSE 12-22)): did not replicate the phase II efficacy results; also recorded: no significant improvement | Change in ADAS-cog at week 24, effect of 60 mg IDL [5, 21]: −0.75 | Change in ADAS-cog at week 24, effect of 60 mg IDL [5, 22]: −0.18 | Change in ADAS-cog at week 24, effect of 60 mg IDL [5, 23]: −2.23 | Change in ADAS-cog at week 24, effect of 60 mg IDL [5, 19]: −1.48 | Change in ADAS-cog at week 24, effect of 60 mg IDL [5, 20]: −0.46 | Change in MMSE at week 24, effect of 60 mg IDL [6, 16]: −0.20 | Change in MMSE at week 24, effect of 60 mg IDL [6, 17]: 0.53 | Change in MMSE at week 24, effect of 60 mg IDL [6, 18]: 1.00 | Change in MMSE at week 24, effect of 60 mg IDL [6, 19]: 1.20 | Change in MMSE at week 24, effect of 60 mg IDL [6, 20]: 0.96 | Ki (h5-HT7): > 10 µM | Change in ADCS-ADL at week 24, effect of 60 mg IDL [7, 16]: −1.29 | Change in ADCS-ADL at week 24, effect of 60 mg IDL [7, 17]: 0.75 | Change in ADCS-ADL at week 24, effect of 60 mg IDL [7, 18]: 2.06 | Change in ADCS-ADL at week 24, effect of 60 mg IDL [7, 19]: 3.35 | Change in ADCS-ADL at week 24, effect of 60 mg IDL [7, 20]: 2.69 | Change in ADAS-cog at week 24, effect of 60 mg IDL [8, 21]: 1.14 | Change in ADAS-cog at week 24, effect of 60 mg IDL [8, 22]: −0.67 | Change in ADAS-cog at week 24, effect of 60 mg IDL [8, 23]: −1.87 | Change in ADAS-cog at week 24, effect of 60 mg IDL [8, 19]: −3.02 | Change in ADAS-cog at week 24, effect of 60 mg IDL [8, 20]: −2.42 | Change in ADAS-cog at week 24, effect of 60 mg IDL [9, 21]: 0.02 | Change in ADAS-cog at week 24, effect of 60 mg IDL [9, 22]: −0.41 | Change in ADAS-cog at week 24, effect of 60 mg IDL [9, 23]: −2.11 | Change in ADAS-cog at week 24, effect of 60 mg IDL [9, 19]: −2.13 | Change in ADAS-cog at week 24, effect of 60 mg IDL [9, 20]: −1.28 | Change in NPI at week 24, effect of 60 mg IDL [10, 21]: −0.09 | Change in NPI at week 24, effect of 60 mg IDL [10, 22]: 0.34 | Change in NPI at week 24, effect of 60 mg IDL [10, 23]: −2.06 | Change in NPI at week 24, effect of 60 mg IDL [10, 19]: −1.97 | Change in NPI at week 24, effect of 60 mg IDL [10, 20]: −0.77 | Change in NPI at week 24, effect of 60 mg IDL [11, 21]: 0.35 | Change in NPI at week 24, effect of 60 mg IDL [11, 22]: −0.04 | Change in NPI at week 24, effect of 60 mg IDL [11, 23]: −3.06 | Change in NPI at week 24, effect of 60 mg IDL [11, 19]: −3.41 | Change in NPI at week 24, effect of 60 mg IDL [11, 20]: −1.90 | cognitive performance relative to donepezil monotherapy [12]: significant improvement | Ki (h5-HT1B): > 10 µM | Ki (h5-HT2B): > 4.1 µM | Change in ADCS-ADL at week 24, effect of 60 mg IDL [13, 16]: −0.21 | Change in ADCS-ADL at week 24, effect of 60 mg IDL [13, 17]: 0.77 | Change in ADCS-ADL at week 24, effect of 60 mg IDL [13, 18]: 1.88 | Change in ADCS-ADL at week 24, effect of 60 mg IDL [13, 19]: 2.09 | Change in ADCS-ADL at week 24, effect of 60 mg IDL [13, 20]: 1.53 | Change in MMSE at week 24, effect of 60 mg IDL [14, 16]: 0.16 | Change in MMSE at week 24, effect of 60 mg IDL [14, 17]: 0.42 | Change in MMSE at week 24, effect of 60 mg IDL [14, 18]: 0.96 | Change in MMSE at week 24, effect of 60 mg IDL [14, 19]: 0.80 | Change in MMSE at week 24, effect of 60 mg IDL [14, 20]: 0.53 | Change in NPI at week 24, effect of 60 mg IDL [15, 21]: 0.96 | Change in NPI at week 24, effect of 60 mg IDL [15, 22]: −0.43 | Change in NPI at week 24, effect of 60 mg IDL [15, 23]: −4.52 | Change in NPI at week 24, effect of 60 mg IDL [15, 19]: −5.48 | Change in NPI at week 24, effect of 60 mg IDL [15, 20]: −3.44

NCCCS(=O)(=O)O [tramiprosate]
primary endpoint of phase III program (AD; all patients): not to meet its primary endpoint | prespecified subgroup analysis (AD; apolipoprotein E4 carriers): potential efficacy
